Converted amounts (≈) assume the structure as drawn. Like-named read-outs stand apart in the source and are kept apart here.
Tests used:
[1] = tested on: M. tuberculosis H37Rv-LP (ATCC 25618); assay: microbe, parasite or virus in culture; assay type: cell-based; conditions: concentration inhibiting 90% of growth, 5 days, read-out: MIC parental wild-type strain H37Rv-LP
[2] = tested on: Mycobacterium smegmatis mc2155; assay type: cell-based
[3] = tested on: M. tuberculosis H37Rv (ATCC 27294); assay: MIC by resazurin reduction microplate assay (REMA); assay type: cell-based; conditions: Mycobacterium tuberculosis, converted from μg/mL to μM
[4] = in vitro; conditions: human
[5] = in vitro; conditions: human; remark: listed apart in the source
[6] = in vitro; conditions: human; remark: listed apart in the source
[7] = tested on: Escherichia coli RFM 795; assay: Antimicrobial spectrum MIC, E. coli; assay type: cell-based; conditions: Escherichia coli RFM 795 (lptD mutation)
[8] = Mycobacterium tuberculosis, 120 h

SMILES: CO[C@H]1/C=C/O[C@@]2(C)Oc3c(C)c(O)c4c(O)c(c(/C=N/N5CCN(C)CC5)c(O)c4c3C2=O)NC(=O)/C(C)=C\C=C\[C@H](C)[C@H](O)[C@@H](C)[C@@H](O)[C@@H](C)[C@H](OC(C)=O)[C@@H]1C [20 (RIF), rifampicin, reference compound]
- MIC [1, 8]: 0.03 µM (≈ 0.0247 µg/mL)
- CIM mc2155 [2]: 48.6 µM

SMILES: Cc1nc(NCCc2ccc3ccccc3c2)c2ccccc2n1 [17a]
- MIC [3]: 8 µM (≈ 2.51 µg/mL)

SMILES: Cc1nc(NCCc2ccc3ccccc3c2)c2cc(Br)ccc2n1 [17c]
- MIC [3]: 3.2 µM (≈ 1.26 µg/mL)
- MIC [1, 8]: 2.5 µM (≈ 0.981 µg/mL)
- CC50 at 72 h [4]: < 1 µM
- CC50 at 72 h [5]: < 1 µM
- CC50 at 72 h ([6]; CC50 HepG2+Gal): 1.8 µM
- CC50 at 72 h ([6]; CC50 HepG2+Glu): 4.6 µM

SMILES: COc1ccc(CCNc2nc(C)nc3ccc(I)cc23)cc1 [10d]
- MIC [3]: 1.5 µM (≈ 0.629 µg/mL)
- MIC [1, 8]: 0.92 µM (≈ 0.386 µg/mL)
- CC50 at 72 h ([6]; CC50 HepG2+Gal): 6.4 µM
- CC50 at 72 h ([6]; CC50 HepG2+Glu): 10.8 µM

SMILES: CCc1ccc(CCNc2nc(C)nc3ccc(Br)cc23)cc1 [16c]
- MIC [3]: 6.8 µM (≈ 2.52 µg/mL)
- MIC [1, 8]: 2 µM (≈ 0.741 µg/mL)
- MIC [1]: 2.0 µM (≈ 0.741 µg/mL)
- CC50 at 72 h ([6]; CC50 HepG2+Gal): 1.6 µM
- CC50 at 72 h ([6]; CC50 HepG2+Glu): 4 µM

SMILES: Cc1nc(NCCc2ccc(OC(F)(F)F)cc2)c2cc(Br)ccc2n1 [13c]
- MIC [3]: 5.9 µM (≈ 2.51 µg/mL)
- MIC [1, 8]: 3.4 µM (≈ 1.45 µg/mL)
- CC50 at 72 h [4]: < 1 µM
- CC50 at 72 h [5]: < 1 µM
- CC50 at 72 h ([6]; CC50 HepG2+Gal): 1 µM
- CC50 at 72 h ([6]; CC50 HepG2+Glu): 1.5 µM

SMILES: CC1(C)S[C@@H]2[C@H](NC(=O)[C@H](N)c3ccccc3)C(=O)N2[C@H]1C(=O)O [27 (AMP), Ampicillin, reference compound]
- CIM RFM 795 [7]: 12.0 µM

SMILES: Cc1nc(NCC(c2ccccc2)c2ccccc2)c2cc(Br)ccc2n1 [12c]
- MIC [3]: > 23.9 µM

SMILES: NNC(=O)c1ccncc1 [19 (INH), isoniazid, reference compound]
- MIC [3]: 2.3 µM (≈ 0.315 µg/mL)

SMILES: CCc1ccc(CCNc2nc(C)nc3ccc(I)cc23)cc1 [16d]
- MIC [3]: 6 µM (≈ 2.5 µg/mL)
- MIC [1, 8]: 1.9 µM (≈ 0.793 µg/mL)
- CC50 at 72 h [4]: 8.3 µM
- CC50 at 72 h [5]: 8.3 µM
- CC50 at 72 h ([6]; CC50 HepG2+Gal): 5.3 µM
- CC50 at 72 h ([6]; CC50 HepG2+Glu): 7.4 µM

SMILES: c1ccc(CCNc2ncnc3ccccc23)cc1 [9e]
- MIC [3]: 80.2 µM (≈ 20 µg/mL)

SMILES: COc1ccc2nc(C)nc(NCCc3ccc(S(N)(=O)=O)cc3)c2c1 [14b]
- MIC [3]: > 107 µM

SMILES: COc1ccc2nc(C)nc(NCC(c3ccccc3)c3ccccc3)c2c1 [12b]
- MIC [3]: 27.1 µM (≈ 10 µg/mL)

SMILES: COc1ccc2nc(C)nc(NCCc3ccc(OC(F)(F)F)cc3)c2c1 [13b]
- MIC [3]: 13.3 µM (≈ 5.02 µg/mL)

SMILES: Cc1nc(NCCc2ccc(S(N)(=O)=O)cc2)c2cc(I)ccc2n1 [14d]
- MIC [3]: > 85.4 µM

SMILES: Cc1nc(NCC(c2ccccc2)c2ccccc2)c2ccccc2n1 [12a]
- MIC [3]: 29.5 µM (≈ 10 µg/mL)

SMILES: Cc1nc(NCCc2ccc(S(N)(=O)=O)cc2)c2cc(Br)ccc2n1 [14c]
- MIC [3]: > 94.9 µM

SMILES: COc1ccc(CCNc2nc(C)nc3ccccc23)cc1 [10a]
- MIC [3]: 34.1 µM (≈ 10 µg/mL)

SMILES: Cc1nc(NCCc2ccc(OC(F)(F)F)cc2)c2cc(I)ccc2n1 [13d]
- MIC [3]: 5.3 µM (≈ 2.51 µg/mL)
- MIC [1, 8]: 3.7 µM (≈ 1.75 µg/mL)
- CC50 at 72 h [4]: 7.3 µM
- CC50 at 72 h [5]: 7.4 µM
- CC50 at 72 h ([6]; CC50 HepG2+Gal): 2.2 µM
- CC50 at 72 h ([6]; CC50 HepG2+Glu): 3.4 µM

SMILES: CCc1ccc(CCNc2nc(C)nc3ccc(OC)cc23)cc1 [16b]
- MIC [3]: 15.6 µM (≈ 5.01 µg/mL)

SMILES: COc1ccc2nc(C)nc(NCCc3ccccc3)c2c1 [9b]
- MIC [3]: 34.1 µM (≈ 10 µg/mL)

SMILES: Cc1nc(NCCc2ccc(S(N)(=O)=O)cc2)c2ccccc2n1 [14a]
- MIC [3]: > 117 µM

SMILES: COc1ccc(CCNc2nc(C)nc3ccc(Br)cc23)cc1 [10c]
- MIC [3]: 13.4 µM (≈ 4.99 µg/mL)

SMILES: Cc1ccc(CCNc2ncnc3ccccc23)cc1 [15e]
- MIC [3]: > 38 µM

SMILES: NS(=O)(=O)c1ccc(CCNc2ncnc3ccccc23)cc1 [14e]
- MIC [3]: > 122 µM

SMILES: c1ccc(CCCNc2ncnc3ccccc23)cc1 [18e]
- MIC [3]: 19 µM (≈ 5 µg/mL)
- MIC [1, 8]: 24 µM (≈ 6.32 µg/mL)
- CC50 at 72 h [4]: < 1 µM
- CC50 at 72 h [5]: < 1 µM
- CC50 at 72 h ([6]; CC50 HepG2+Gal): 2.5 µM
- CC50 at 72 h ([6]; CC50 HepG2+Glu): 10.9 µM

SMILES: Cc1nc(NCCc2ccc3ccccc3c2)c2cc(I)ccc2n1 [17d]
- MIC [3]: 1.4 µM (≈ 0.615 µg/mL)
- MIC [1, 8]: 1.4 µM (≈ 0.615 µg/mL)
- CC50 at 72 h ([6]; CC50 HepG2+Gal): 5.2 µM
- CC50 at 72 h ([6]; CC50 HepG2+Glu): 7.1 µM

Reference: publication PMC12257397, “Scaffold Hopping Strategy toward New 4‑Aminoquinazolines Active Against Extracellular and Intracellular Mycobacterium tuberculosis” (ACS Medicinal Chemistry Letters, 2025)
